Laboratory results reported in patent publication US20240065988A1, “COMBINED USE OF KETAMINE AND RETIGABINE (EZOGABINE) FOR THE TREATMENT OF PSYCHIATRIC DISORDERS” (Yeda Research and Development Co. Ltd., priority 2021, published 2024).

System: single cells from the ventral hippocampus (vHipp)
Test: Single-cell RNA sequencing (scRNA-seq) of the ventral hippocampus after ketamine treatment; differential expression per cell type
[1] = Microglia, ketamine 10 mg/kg i.p. vs saline
[2] = OPCs, ketamine 10 mg/kg i.p. vs saline
[3] = Oligodendrocytes, ketamine 10 mg/kg i.p.
[4] = Oligodendrocytes, ketamine 10 mg/kg i.p. vs saline
[5] = Vascular Cells, ketamine 10 mg/kg i.p. vs saline

CNC1(c2ccccc2Cl)CCCCC1=O (racemic) [ketamine, (R,S)-ketamine]
Mean-Ket (Lsm8, Glut Neurons): 1.062
logFC (Lsm8, Glut Neurons): −0.125
Change (Map1lc3b, Glut Neurons): Down
Mean-Ket (Map1lc3b, Glut Neurons): 1.349
logFC (Map1lc3b, Glut Neurons): −0.132
Change (Map4, Glut Neurons): Down
Mean-Ket (Map4, Glut Neurons): 2.794
logFC (Map4, Glut Neurons): −0.101
Change (Matr3, Glut Neurons): Down
Mean-Ket (Matr3, Glut Neurons): 1.685
logFC (Matr3, Glut Neurons): −0.160
Eef1akmt3 Mean-Ket (Microglia, ketamine 10 mg/kg i.p.): 1.718
Eef1akmt3 Change [1]: Up
Eef1akmt3 logFC [1]: 0.394
Change (Mmachc, Glut Neurons): Down
Mean-Ket (Mmachc, Glut Neurons): 2.750
logFC (Mmachc, Glut Neurons): −0.102
Change (Mrpl48, Glut Neurons): Up
Mean-Ket (Mrpl48, Glut Neurons): 1.060
logFC (Mrpl48, Glut Neurons): 0.180
Change (Mtg2, Glut Neurons): Down
Mean-Ket (Mtg2, Glut Neurons): 2.635
logFC (Mtg2, Glut Neurons): −0.091
Change (Ndufc1, Glut Neurons): Down
Mean-Ket (Ndufc1, Glut Neurons): 1.039
logFC (Ndufc1, Glut Neurons): −0.150
Change (Nedd4, Glut Neurons): Down
Mean-Ket (Nedd4, Glut Neurons): 1.358
logFC (Nedd4, Glut Neurons): −0.161
Change (Nop58, Glut Neurons): Down
Mean-Ket (Nop58, Glut Neurons): 2.645
logFC (Nop58, Glut Neurons): −0.096
Change (Nvl, Glut Neurons): Up
Mean-Ket (Nvl, Glut Neurons): 1.070
logFC (Nvl, Glut Neurons): 0.148
genes differentially expressed exclusively in one cell type (OPCs): 3
Akap5 Mean-Ket (OPCs, ketamine 10 mg/kg i.p.): 3.963
Eef1akmt3 Mean-Ket (OPCs, ketamine 10 mg/kg i.p.): 1.870
Ilf2 Mean-Ket (OPCs, ketamine 10 mg/kg i.p.): 1.310
Lrrc17 Mean-Ket (OPCs, ketamine 10 mg/kg i.p.): 3.227
Mfsd4a Mean-Ket (OPCs, ketamine 10 mg/kg i.p.): 0.916
Saa3 Mean-Ket (OPCs, ketamine 10 mg/kg i.p.): 1.654
Tmem181b-ps Mean-Ket (OPCs, ketamine 10 mg/kg i.p.): 0.055
Tmem1311 Mean-Ket (OPCs, ketamine 10 mg/kg i.p.): 0.804
Tmprss11a Mean-Ket (OPCs, ketamine 10 mg/kg i.p.): 0.015
Akap5 Change [2]: Down
Akap5 logFC [2]: −0.320
Eef1akmt3 Change [2]: Up
Eef1akmt3 logFC [2]: 0.527
Ilf2 Change [2]: Up
Ilf2 logFC [2]: 0.398
Lrrc17 Change [2]: Down
Lrrc17 logFC [2]: −0.286
Mfsd4a Change [2]: Up
Mfsd4a logFC [2]: 0.460
Saa3 Change [2]: Up
Saa3 logFC [2]: 0.404
Tmem181b-ps Change [2]: Down
Tmem181b-ps logFC [2]: −0.195
Tmem1311 Change [2]: Up
Tmem1311 logFC [2]: 0.585
Tmprss11a Change [2]: Down
Tmprss11a logFC [2]: −0.121
Change (Oaz1, Glut Neurons): Down
Mean-Ket (Oaz1, Glut Neurons): 1.200
logFC (Oaz1, Glut Neurons): −0.205
Akap5 Mean-Ket [3]: 3.517
Eef1akmt3 Mean-Ket [3]: 2.089
Gsn Mean-Ket [3]: 1.005
Ilf2 Mean-Ket [3]: 1.493
Jpt2 Mean-Ket [3]: 1.507
Lrrc17 Mean-Ket [3]: 2.805
Map3k20 Mean-Ket [3]: 2.351
Mfsd4a Mean-Ket [3]: 1.058
Mmachc Mean-Ket [3]: 3.286
Pias4 Mean-Ket [3]: 1.649
Ppp1r7 Mean-Ket [3]: 1.026
Psmb11 Mean-Ket [3]: 1.161
Saa3 Mean-Ket [3]: 1.909
Sec14l1 Mean-Ket [3]: 1.281
Slc10a7 Mean-Ket [3]: 1.538
Snhg11 Mean-Ket [3]: 2.917
Supt7l Mean-Ket [3]: 2.509
Them4 Mean-Ket [3]: 1.517
Tulp1 Mean-Ket [3]: 1.893
Upf3b Mean-Ket [3]: 3.197
Vps8 Mean-Ket [3]: 1.703
Xcr1 Mean-Ket [3]: 1.078
Zfp229 Mean-Ket [3]: 1.093
Zfp827 Mean-Ket [3]: 1.284
Akap5 Change [4]: Down
Akap5 logFC [4]: −0.393
Eef1akmt3 Change [4]: Up
Eef1akmt3 logFC [4]: 0.601
Gsn Change [4]: Up
Gsn logFC [4]: 0.254
Ilf2 Change [4]: Up
Ilf2 logFC [4]: 0.463
Jpt2 Change [4]: Up
Jpt2 logFC [4]: 0.265
Lrrc17 Change [4]: Down
Lrrc17 logFC [4]: −0.365
Map3k20 Change [4]: Up
Map3k20 logFC [4]: 0.245
Mfsd4a Change [4]: Up
Mfsd4a logFC [4]: 0.642
Mmachc Change [4]: Up
Mmachc logFC [4]: 0.154
Pias4 Change [4]: Up
Pias4 logFC [4]: 0.209
Ppp1r7 Change [4]: Up
Ppp1r7 logFC [4]: 0.231
Psmb11 Change [4]: Up
Psmb11 logFC [4]: 0.191
Saa3 Change [4]: Up
Saa3 logFC [4]: 0.574
Sec14l1 Change [4]: Up
Sec14l1 logFC [4]: 0.238
Slc10a7 Change [4]: Up
Slc10a7 logFC [4]: 0.192
Snhg11 Change [4]: Up
Snhg11 logFC [4]: 0.164
Supt7l Change [4]: Up
Supt7l logFC [4]: 0.169
Them4 Change [4]: Up
Them4 logFC [4]: 0.233
Tulp1 Change [4]: Up
Tulp1 logFC [4]: 0.207
Upf3b Change [4]: Up
Upf3b logFC [4]: 0.166
Vps8 Change [4]: Down
Vps8 logFC [4]: −0.217
Xcr1 Change [4]: Up
Xcr1 logFC [4]: 0.197
Zfp229 Change [4]: Up
Zfp229 logFC [4]: 0.199
Zfp827 Change [4]: Up
Zfp827 logFC [4]: 0.208
Change (P3h3, Glut Neurons): Down
Mean-Ket (P3h3, Glut Neurons): 2.278
logFC (P3h3, Glut Neurons): −0.111
Change (Pan3, Astrocytes): Down
Mean-Ket (Pan3, Astrocytes): 1.194
logFC (Pan3, Astrocytes): −0.179
Change (Pbld1, Glut Neurons): Down
Mean-Ket (Pbld1, Glut Neurons): 3.387
logFC (Pbld1, Glut Neurons): −0.106
Change (Poldip2, Astrocytes): Down
Mean-Ket (Poldip2, Astrocytes): 1.255
logFC (Poldip2, Astrocytes): −0.142
Change (Polr2c, Glut Neurons): Down
Mean-Ket (Polr2c, Glut Neurons): 2.412
logFC (Polr2c, Glut Neurons): −0.101
Change (Ppan, Glut Neurons): Down
Mean-Ket (Ppan, Glut Neurons): 2.680
logFC (Ppan, Glut Neurons): −0.102
Change (Ppp1r16b, Astrocytes): Down
Mean-Ket (Ppp1r16b, Astrocytes): 2.539
logFC (Ppp1r16b, Astrocytes): −0.227
Change (Rhpn2, Glut Neurons): Down
Mean-Ket (Rhpn2, Glut Neurons): 1.601
logFC (Rhpn2, Glut Neurons): −0.114
Change (Rpl6, Glut Neurons): Down
Mean-Ket (Rpl6, Glut Neurons): 0.808
logFC (Rpl6, Glut Neurons): −0.190
Change (Rpl41, Glut Neurons): Down
Mean-Ket (Rpl41, Glut Neurons): 2.239
logFC (Rpl41, Glut Neurons): −0.192
Change (Rps29, Glut Neurons): Down
Mean-Ket (Rps29, Glut Neurons): 0.978
logFC (Rps29, Glut Neurons): −0.136
Change (Rtn1, Glut Neurons): Down
Mean-Ket (Rtn1, Glut Neurons): 1.210
logFC (Rtn1, Glut Neurons): −0.185
Change (Saa3, Astrocytes): Up
Mean-Ket (Saa3, Astrocytes): 1.697
logFC (Saa3, Astrocytes): 0.254
Change (Saa3, Glut Neurons): Up
Mean-Ket (Saa3, Glut Neurons): 1.494
logFC (Saa3, Glut Neurons): 0.193
Change (Sec23b, Glut Neurons): Down
Mean-Ket (Sec23b, Glut Neurons): 2.447
logFC (Sec23b, Glut Neurons): −0.109
Change (Sec23ip, Glut Neurons): Down
Mean-Ket (Sec23ip, Glut Neurons): 2.674
logFC (Sec23ip, Glut Neurons): −0.107
Change (Slc23a1, Glut Neurons): Down
Mean-Ket (Slc23a1, Glut Neurons): 2.215
logFC (Slc23a1, Glut Neurons): −0.114
Change (Slc25a4, Glut Neurons): Down
Mean-Ket (Slc25a4, Glut Neurons): 0.872
logFC (Slc25a4, Glut Neurons): −0.125
Change (Snca, Glut Neurons): Down
Mean-Ket (Snca, Glut Neurons): 0.835
logFC (Snca, Glut Neurons): −0.147
Change (Swt1, Glut Neurons): Down
Mean-Ket (Swt1, Glut Neurons): 2.617
logFC (Swt1, Glut Neurons): −0.085
Change (Synb, Glut Neurons): Down
Mean-Ket (Synb, Glut Neurons): 1.730
logFC (Synb, Glut Neurons): −0.118
Change (Syne1, Astrocytes): Up
Mean-Ket (Syne1, Astrocytes): 1.068
logFC (Syne1, Astrocytes): 0.128
Change (Timeless, Glut Neurons): Down
Mean-Ket (Timeless, Glut Neurons): 2.582
logFC (Timeless, Glut Neurons): −0.106
Change (Tmsb4x, Glut Neurons): Down
Mean-Ket (Tmsb4x, Glut Neurons): 1.829
logFC (Tmsb4x, Glut Neurons): −0.167
Change (Tpd52, Astrocytes): Down
Mean-Ket (Tpd52, Astrocytes): 1.199
logFC (Tpd52, Astrocytes): −0.145
Change (Trpc4ap, Glut Neurons): Down
Mean-Ket (Trpc4ap, Glut Neurons): 1.729
logFC (Trpc4ap, Glut Neurons): −0.115
Change (Tuba1a, Astrocytes): Down
Mean-Ket (Tuba1a, Astrocytes): 1.483
logFC (Tuba1a, Astrocytes): −0.162
Change (Ube2k, Glut Neurons): Down
Mean-Ket (Ube2k, Glut Neurons): 2.844
logFC (Ube2k, Glut Neurons): −0.099
Change (Unc13d, Astrocytes): Down
Mean-Ket (Unc13d, Astrocytes): 1.469
logFC (Unc13d, Astrocytes): −0.146
Change (Usp34, Glut Neurons): Down
Mean-Ket (Usp34, Glut Neurons): 2.142
logFC (Usp34, Glut Neurons): −0.099
Flna Mean-Ket (Vascular Cells, ketamine 10 mg/kg i.p.): 2.309
Flna Change [5]: Up
Flna logFC [5]: 2.044
Change (Washc4, Glut Neurons): Down
Mean-Ket (Washc4, Glut Neurons): 2.856
logFC (Washc4, Glut Neurons): −0.092
Change (Wdr12, Glut Neurons): Down
Mean-Ket (Wdr12, Glut Neurons): 2.770
logFC (Wdr12, Glut Neurons): −0.102
Change (Yae1d1, Glut Neurons): Down
Mean-Ket (Yae1d1, Glut Neurons): 1.738
logFC (Yae1d1, Glut Neurons): −0.143
Change (Ythdc1, Astrocytes): Down
Mean-Ket (Ythdc1, Astrocytes): 1.822
logFC (Ythdc1, Astrocytes): −0.144
Change (Zcchc4, Glut Neurons): Down
Mean-Ket (Zcchc4, Glut Neurons): 0.973
logFC (Zcchc4, Glut Neurons): −0.113
Change (Zfp113, Glut Neurons): Down
Mean-Ket (Zfp113, Glut Neurons): 2.767
logFC (Zfp113, Glut Neurons): −0.090
Change (Zfp369, Glut Neurons): Up
Mean-Ket (Zfp369, Glut Neurons): 1.005
logFC (Zfp369, Glut Neurons): 0.207
genes differentially expressed exclusively in one cell type (astrocytes): 27
genes differentially expressed exclusively in one cell type (endothelial cells): 1
genes differentially expressed exclusively in one cell type (glutamatergic neurons): 135
DEGs in glutamatergic neurons (glutamatergic neurons, all DEGs): 165
total differentially expressed genes (DEGs) (in 7 of the 13 clusters, ketamine 10 mg/kg vs saline): 263
relative cell type composition for each cluster, ketamine vs saline (ketamine 10 mg/kg BW i.p., 2 days post-injection): no significant differences
Change (mt-Atp6, Astrocytes): Up
Mean-Ket (mt-Atp6, Astrocytes): 2.236
logFC (mt-Atp6, Astrocytes): 0.106
Change (mt-Cytb, Astrocytes): Up
Mean-Ket (mt-Cytb, Astrocytes): 2.746
logFC (mt-Cytb, Astrocytes): 0.093
Change (mt-Nd2, Astrocytes): Up
Mean-Ket (mt-Nd2, Astrocytes): 1.340
logFC (mt-Nd2, Astrocytes): 0.132
Change (mt-Nd4, Astrocytes): Up
Mean-Ket (mt-Nd4, Astrocytes): 2.165
logFC (mt-Nd4, Astrocytes): 0.125
genes differentially expressed exclusively in one cell type (oligodendrocytes): 16
genes differentially expressed exclusively in one cell type (vascular cells): 1
